Test results published in US20100324075A1, “THERAPEUTIC USE OF CARBOXYL ESTER LIPASE INHIBITORS” (UNIVERSITY OF CINCINNATI, priority 2007, published 2010).

Columns and labels:
CEL [1] = biological target: T1, CEL (Homo sapiens, UniProt P19835); assay: Serum HDL, LDL and VLDL cholesterol in a patient with suboptimal HDL given a CEL inhibitor; type: in vivo; conditions: daily oral dose 1 mg per kg, two weeks
T1 construct: The patient takes a daily oral dose of 1 mg per kg body of weight; from tissue; host or cells: whole organism: patient (endogenous enzyme)
T1 sequence (P19835 21-753): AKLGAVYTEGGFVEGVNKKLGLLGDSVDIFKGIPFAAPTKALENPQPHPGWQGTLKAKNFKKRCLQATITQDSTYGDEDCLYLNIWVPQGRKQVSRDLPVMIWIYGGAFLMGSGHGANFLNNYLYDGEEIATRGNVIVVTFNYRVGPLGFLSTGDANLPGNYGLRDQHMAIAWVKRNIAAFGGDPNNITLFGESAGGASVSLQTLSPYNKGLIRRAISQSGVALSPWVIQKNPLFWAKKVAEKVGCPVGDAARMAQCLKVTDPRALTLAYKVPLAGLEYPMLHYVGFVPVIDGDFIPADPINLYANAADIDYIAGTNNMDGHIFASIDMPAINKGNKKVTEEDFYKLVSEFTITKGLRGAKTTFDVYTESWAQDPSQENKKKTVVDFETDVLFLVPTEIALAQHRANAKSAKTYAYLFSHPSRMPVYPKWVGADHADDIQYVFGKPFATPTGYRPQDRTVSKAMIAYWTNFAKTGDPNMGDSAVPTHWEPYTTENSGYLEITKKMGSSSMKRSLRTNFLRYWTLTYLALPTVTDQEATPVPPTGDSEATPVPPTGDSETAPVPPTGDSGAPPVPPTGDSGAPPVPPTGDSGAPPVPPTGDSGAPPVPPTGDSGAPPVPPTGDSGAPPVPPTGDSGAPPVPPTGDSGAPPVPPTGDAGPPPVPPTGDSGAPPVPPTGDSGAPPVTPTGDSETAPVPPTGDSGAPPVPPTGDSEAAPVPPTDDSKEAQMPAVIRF
Experimental: (§1) A patient with suboptimal HDL cholesterol level, which is not the result of a known genetic or other predisposing condition, is prescribed (1,5-dimethylhexyl)carbamic acid 4-phenoxyphenyl ester to raise serum HDL levels. The patient takes a daily oral dose of 1 mg per kg body of weight for a period of two weeks, after which serum cholesterol in HDL, LDL, and VLDL is again measured. It is determined that HDL cholesterol has increased by 15-20%, that the ratio of HDL:LDL has increased, and that VLDL is decreased, such that risk for cardiovascular disease is reduced.
as §1, with “4-methyl-1-piperidinecarboxylic” for “(1,5-dimethylhexyl)carbamic”

CEL [2] = biological target: T2, CEL (Mus musculus, UniProt Q64285); assay: Daily fecal cholesterol (neutral sterol) excretion in mice fed CEL inhibitor in chow (reverse cholesterol transport); type: in vivo; conditions: C57BL/6 mice
T2 construct: from tissue; host or cells: whole animal: wild-type C57BL/6 mice (CEL made by pancreas and liver)
T2 sequence (Q64285 21-599): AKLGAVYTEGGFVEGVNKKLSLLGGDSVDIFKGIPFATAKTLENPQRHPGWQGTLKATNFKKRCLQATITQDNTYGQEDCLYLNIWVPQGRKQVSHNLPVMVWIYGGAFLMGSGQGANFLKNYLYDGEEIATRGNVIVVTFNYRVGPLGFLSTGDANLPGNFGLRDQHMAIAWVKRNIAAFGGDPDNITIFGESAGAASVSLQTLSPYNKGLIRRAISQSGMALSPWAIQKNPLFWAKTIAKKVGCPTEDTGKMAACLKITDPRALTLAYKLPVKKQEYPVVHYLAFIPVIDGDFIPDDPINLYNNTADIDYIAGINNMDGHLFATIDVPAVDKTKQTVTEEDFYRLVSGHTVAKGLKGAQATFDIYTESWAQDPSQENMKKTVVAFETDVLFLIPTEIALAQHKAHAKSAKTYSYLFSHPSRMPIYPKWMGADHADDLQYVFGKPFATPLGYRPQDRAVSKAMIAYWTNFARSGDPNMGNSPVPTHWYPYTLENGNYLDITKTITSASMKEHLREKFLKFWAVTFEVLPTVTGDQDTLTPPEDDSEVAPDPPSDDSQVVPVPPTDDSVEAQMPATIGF
Experimental: FIG. 8. Excretion of neutral sterol mass is increased by feeding CEL inhibitor (1,5-dimethylhexyl)carbamic acid 4-phenoxyphenyl ester to normal C57BL/6 mice. Inhibitor was mixed with standard rodent chow and fed to mice after baseline excretion was determined. Sterol excretion was again determined after 2 weeks of inhibitor treatment. The change from baseline is plotted for each mouse (n=13).
Animals were individually housed in cages fitted with a wire platform with full access to food and water. After a 1 or 2 day acclimation period, feces were collected for 72 h and sterols were quantitated using a variation of the method described by Post et al. (Post, et al., Increased fecal bile acid excretion in transgenic mice with elevated expression of human phospholipid transfer protein. Arterioscler. Thromb. Vasc. Biol. 23:892-97 (2003)). After being dried and weighed, fecal material was ground to a fine powder. 5α-cholestane (40 μg) and [24-^14C]-taurocholic acid (0.02 μCi) were added to 0.5 g of the ground fecal material as internal standards for extraction efficiency of neutral and acidic sterols, respectively. The fecal material plus standards were suspended in 10 volumes of alkaline methanol (0.2 M NaOH in 80% methanol), incubated at 80° C. for 2 hr, and neutral sterols were separated by 3 extractions with equal volumes of petroleum ether. The combined organic fractions were evaporated under nitrogen, resuspended in hexane, and a portion was used to measure neutral sterols by gas chromatography (Shimadzu Scientific Instruments). Data reported represent the sum of areas under the curves for cholesterol, coprostanol, and lathosterol. The aqueous residue from above was filtered, washed, dried, resuspended in water, and applied to prewashed C18 Bond Elut columns (Varian Inc., Palo Alto, Calif.). Bile acids were eluted from the columns with methanol, concentrated and quantitated by colorimetric assay (Trinity Biotech). To measure fecal sterol esters, ground fecal samples were resuspended in water, extracted with petroleum ether, concentrated, resolved by TLC as above and visualized at 80° C. after staining with 10% phosphomolybdic acid in ethanol, or bands were scraped and quantitated by scintillation spectrometry.
The effect of (1,5-dimethylhexyl)carbamic acid 4-phenoxyphenyl ester on cholesterol disposal has been measured in C57BL/6 mice. Baseline daily fecal cholesterol disposal by chow-fed mice was measured over 3 days using established methods. Thereafter, the same mice were fed a chow diet to which had been added 1 milligram of (1,5-dimethylhexyl)carbamic acid 4-phenoxyphenyl ester per gram of food. The average body weight of the mice was 24 grams. Mice of this size are known to eat between 3.5 and 4 grams of chow per day. Thus, the amount of inhibitor consumed was between 3.5 and 4.0 milligrams per mouse per day or between 146 and 167 milligrams per kilogram of bodyweight. After eating inhibitor-containing diet for 2 weeks, daily fecal cholesterol excretion was again measured over 3 days. […] The average excretion at baseline was 48.9±11.3 micrograms per day per gram bodyweight (range 28.6 to 71.8), which increased to 62.1±10.4 micrograms per day per gram bodyweight (range 45.3 to 89.1) after treatment. The average change per mouse was +33.0% (range −19.3 to +95.4), with 10 of the 13 mice responding positively, 1 showing no change and 2 responding negatively).

| Compound | VLDL (CEL [1]) | increase in HDL cholesterol (CEL [1]) | ratio of HDL:LDL (CEL [1]) | average change per mouse in cholesterol excretion from baseline (CEL [2]; 1 mg/g chow, 2 weeks, n=13, range −19.3 to +95.4) | mice responding positively (increased cholesterol excretion) (CEL [2]; 1 mg/g chow, 2 weeks, 1 no change, 2 negative) | cholesterol excretion, paired data analysis vs baseline (CEL [2]; 1 mg/g chow, 2 weeks, P=0.01) | average increase in cholesterol excretion over baseline, of those that responded positively (CEL [2]; 1 mg/g chow, 2 weeks, positive responders only) [%] | average fecal cholesterol excretion after treatment (CEL [2]; 1 milligram inhibitor per gram chow for 2 weeks, n=13, baseline 48.9±11.3) |
| --- | --- | --- | --- | --- | --- | --- | --- | --- |
| CC1CCN(C(=O)Oc2ccc(Oc3ccccc3)cc2)CC1 [4-methyl-1-piperidinecarboxylic acid 4-phenoxyphenyl ester] | decreased | 15-20% | increased |  |  |  |  |  |
| CC(C)CCCC(C)NC(=O)Oc1ccc(Oc2ccccc2)cc1 (centres unmarked) [(1,5-dimethylhexyl)carbamic acid 4-phenoxyphenyl ester] | decreased | 15-20% | increased | +33.0% | 10 of the 13 | significantly increased | 46.7 | 62.1±10.4 micrograms per day per gram bodyweight |
